The text below walks through data of publication PMC5884652, “New antimicrobial peptide kills drug-resistant pathogens without detectable resistance” (Oncotarget, 2018).

In brackets after ≈: the same amount, converted by molar mass. A value given as a limit tells only on which side of the number the result lay.

Holding throughout (test): microbe, parasite or virus in culture
The subject of assay [1] is E. coli CCARM1238. Format: cell-based, Escherichia coli. The conditions noted are these: Escherichia coli, CCARM1238; pH (I or II) not given; 10 mM sodium phosphate buffer, 10% LB; 37° C, 24 h; mean of 3 experiments. An excerpt:
(§1) The method for peptide synthesis has been described in detail previously. E. coli ATCC 25922 (LB media), P. aeruginosa ATCC 15692 (NB+0.5% NaCl media), Listeria monocytogenes ATCC 3710 (LB media), Staphylococcus epidermidis ATCC 12228 (LB media), and S. aureus ATCC 29213 (TSB media) were obtained from the American Type Culture Collection (Manassas, VA, USA). Bacillus subtilis KCTC 1998 (LB media), Salmonella typhimurium KCTC 1926 (NB media), and Proteus vulgaris KCTC 2433 (NB media) were obtained from the Korean Collection for Type Cultures (Jeollabuk-do, Korea). E. coli CCARM 1238 was received from the Culture Collection of Antibiotic Resistant Microbes at Seoul Women’s University, Korea. Drug-resistant P. aeruginosa 3543, 3904, 3547, and 4007 and S. aureus 3126, 0027, 5157, 1635, 4761, 5159, 3359, 2122, 1630, 1870, 3511, 5156, and 3518 were resistant strains isolated from patients with otitis media in a Chonnam National University’s hospital.
(§2) The antibacterial activities of AMPs (melittin, clavaspirin, and its analogs) and conventional antibiotic drugs (erythromycin, gentamicin, ampicillin, and piperacidin) were determined using microdilution assays. Bacterial cells were cultured at 37° C in appropriate culture media at pH 5.5 or pH 7.4 until collection during the mid-log phase and suspended in 10 mM sodium phosphate buffer (pH 5.5 or pH 7.4) supplemented with 10% culture medium. Thereafter, 2× serial dilutions of each peptide (0.25–128 μM) or antibiotic (0.25–256 μM) were added to sterile 96-well plates, and aliquots of cell suspension (5 × 10^5 colony forming units (cfu)/mL) were seeded into each well. The samples were then incubated at 37° C for 24 h. At the end of the incubation, the minimum inhibitory concentrations (MICs) of the peptides were determined using a VERSA Max microplate reader (Molecular Devices Co., Sunnyvale, CA, USA) at a wavelength of 600 nm. […] MIC values were calculated as the mean of 3 independent experiments conducted in triplicate.

Assay [2] relates to P. aeruginosa 3547. It is filed as cell-based, Pseudomonas aeruginosa. The conditions noted are these: Pseudomonas aeruginosa, 3547; pH (I or II) not given; 10 mM sodium phosphate buffer, 10% LB; 37° C, 24 h; mean of 3 experiments.
Text: as §1, §2

Assay [3] concerns P. aeruginosa 3543. It is filed as cell-based, Pseudomonas aeruginosa. The conditions noted are these: Pseudomonas aeruginosa, 3543; pH (I or II) not given; 10 mM sodium phosphate buffer, 10% LB; 37° C, 24 h; mean of 3 experiments.
Text: as §1, §2

The subject of assay [4] is P. aeruginosa 4007. It is filed as cell-based, Pseudomonas aeruginosa. The conditions noted are these: Pseudomonas aeruginosa, 4007; pH (I or II) not given; 10 mM sodium phosphate buffer, 10% LB; 37° C, 24 h; mean of 3 experiments.
Text: as §1, §2

Assay [5] relates to P. aeruginosa 3904. It is filed as cell-based, Pseudomonas aeruginosa. The conditions noted are these: Pseudomonas aeruginosa, 3904; pH (I or II) not given; 10 mM sodium phosphate buffer, 10% LB; 37° C, 24 h; mean of 3 experiments.
Text: as §1, §2

The test system of assay [6] is S. aureus 0027. It is filed as cell-based, Staphylococcus aureus. The conditions noted are these: Staphylococcus aureus, 0027; pH (I or II) not given; 10 mM sodium phosphate buffer, 10% LB; 37° C, 24 h; mean of 3 experiments.
Text: as §1, §2

Assay [7] deals with S. aureus 5156. Format: cell-based, Staphylococcus aureus. The conditions noted are these: Staphylococcus aureus, 5156; pH (I or II) not given; 10 mM sodium phosphate buffer, 10% LB; 37° C, 24 h; mean of 3 experiments.
Text: as §1, §2

Assay [8] relates to S. aureus 3359. Format: cell-based, Staphylococcus aureus. The conditions noted are these: Staphylococcus aureus, 3359; pH (I or II) not given; 10 mM sodium phosphate buffer, 10% LB; 37° C, 24 h; mean of 3 experiments.
Text: as §1, §2

Assay [9] relates to S. aureus 1870. It is filed as cell-based, Staphylococcus aureus. The conditions noted are these: Staphylococcus aureus, 1870; pH (I or II) not given; 10 mM sodium phosphate buffer, 10% LB; 37° C, 24 h; mean of 3 experiments.
Text: as §1, §2

Assay [10] concerns S. aureus 5157. It is filed as cell-based, Staphylococcus aureus. The conditions noted are these: Staphylococcus aureus, 5157; pH (I or II) not given; 10 mM sodium phosphate buffer, 10% LB; 37° C, 24 h; mean of 3 experiments.
Text: as §1, §2

Assay [11] deals with S. aureus 3126. It is filed as cell-based, Staphylococcus aureus. The conditions noted are these: Staphylococcus aureus, 3126; pH (I or II) not given; 10 mM sodium phosphate buffer, 10% LB; 37° C, 24 h; mean of 3 experiments.
Text: as §1, §2

In assay [12] the test system is S. aureus 4761. Format: cell-based, Staphylococcus aureus. The conditions noted are these: Staphylococcus aureus, 4761; pH (I or II) not given; 10 mM sodium phosphate buffer, 10% LB; 37° C, 24 h; mean of 3 experiments.
Text: as §1, §2

Assay [13] relates to S. aureus 1635. Format: cell-based, Staphylococcus aureus. The conditions noted are these: Staphylococcus aureus, 1635; pH (I or II) not given; 10 mM sodium phosphate buffer, 10% LB; 37° C, 24 h; mean of 3 experiments.
Text: as §1, §2

For assay [14], the system named is S. aureus 3518. It is filed as cell-based, Staphylococcus aureus. The conditions noted are these: Staphylococcus aureus, 3518; pH (I or II) not given; 10 mM sodium phosphate buffer, 10% LB; 37° C, 24 h; mean of 3 experiments.
Text: as §1, §2

For assay [15], the system named is S. aureus 5159. It is filed as cell-based, Staphylococcus aureus. The conditions noted are these: Staphylococcus aureus, 5159; pH (I or II) not given; 10 mM sodium phosphate buffer, 10% LB; 37° C, 24 h; mean of 3 experiments.
Text: as §1, §2

Assay [16] has as its system S. aureus 2122. It is filed as cell-based, Staphylococcus aureus. The conditions noted are these: Staphylococcus aureus, 2122; pH (I or II) not given; 10 mM sodium phosphate buffer, 10% LB; 37° C, 24 h; mean of 3 experiments.
Text: as §1, §2

The test system of assay [17] is S. aureus 1630. It is filed as cell-based, Staphylococcus aureus. The conditions noted are these: Staphylococcus aureus, 1630; pH (I or II) not given; 10 mM sodium phosphate buffer, 10% LB; 37° C, 24 h; mean of 3 experiments.
Text: as §1, §2

For assay [18], the system named is S. aureus 3511. Format: cell-based, Staphylococcus aureus. The conditions noted are these: Staphylococcus aureus, 3511; pH (I or II) not given; 10 mM sodium phosphate buffer, 10% LB; 37° C, 24 h; mean of 3 experiments.
Text: as §1, §2

In the case of `CC1(C)S[C@@H]2[C@H](NC(=O)[C@H](N)c3ccccc3)C(=O)N2[C@H]1C(=O)O` [ampicillin], the MIC in assay [1] is above 800 µM; in [2] it was 400 µM (≈ 140 µg/mL); in assay [3], above 800 µM; in [4], above 800 µM; in assay [5], above 800 µM.
As to `CC[C@H]1OC(=O)[C@H](C)[C@@H](O[C@H]2C[C@@](C)(OC)[C@@H](O)[C@H](C)O2)[C@H](C)[C@@H](O[C@@H]2O[C@H](C)C[C@H](N(C)C)[C@H]2O)[C@](C)(O)C[C@@H](C)C(=O)[C@H](C)[C@@H](O)[C@]1(C)O` [erythromycin], the MIC in [6] was above 256 µM; in assay [7], above 256 µM; in [8], above 256 µM; in [9] it was above 256 µM; in assay [10], 16 µM (≈ 11.7 µg/mL); in assay [11], 128 µM (≈ 93.9 µg/mL). Besides, the MIC in assay [12] is above 256 µM; in assay [13] it was above 256 µM; in [14], above 256 µM; in assay [15] it was 16 µM (≈ 11.7 µg/mL); in assay [16], above 256 µM; in [17], above 256 µM. For the same molecule, the MIC in assay [18] was above 256 µM.
As for `CNC(C)C1CCC(N)C(OC2C(N)CC(N)C(OC3OCC(C)(O)C(NC)C3O)C2O)O1` (stereo not shown) [gentamicin], the MIC in assay [6] was 64 µM (≈ 30.6 µg/mL); in [7], above 256 µM; in assay [8], 64 µM (≈ 30.6 µg/mL); in assay [9] it was 16 µM (≈ 7.64 µg/mL); in assay [10], 16 µM (≈ 7.64 µg/mL); in assay [11], 32 µM (≈ 15.3 µg/mL). Moreover, the MIC in [12] is 32 µM (≈ 15.3 µg/mL); in assay [13], above 256 µM; in assay [14] it was above 256 µM; in assay [15], 16 µM (≈ 7.64 µg/mL); in [16], 128 µM (≈ 61.1 µg/mL); in [17] it was 64 µM (≈ 30.6 µg/mL). In assay [18], the MIC was above 256 µM.
